Measured values as given in paper PMC3698108, “Structural and bioactive studies of terpenes and cyclopeptides from the Genus Rubia” (Chemistry Central Journal, 2013).

How the values were obtained:
human colon-cancer cells = tested on: human colon-cancer cells; set-up: method as in PMID 18790561, PMID 18298868; conditions: intrinsic mitochondrial pathway; cited from earlier work
pancreatic tumor = tested on: pancreatic tumor; set-up: method as in PMID 20367887; conditions: cited from earlier work
Protein kinase C (PKC) = conditions: cited from earlier work
[1] = set-up: method as in PMID 17978478; conditions: KK-A^y mice; cited from earlier work
[2] = tested on: human immunodeficiency virus (HIV-1) protease; set-up: method as in PMID 8759159; conditions: cited from earlier work
A549, Hela and SMMC-7721 = tested on: A549, Hela and SMMC-7721; set-up: method as in PMID 21973054; conditions: data not very satisfactory; cited from earlier work
Staphylococcus aureus = tested on: Staphylococcus aureus; set-up: method as in PMID 21973054; conditions: turbidimetric method; cited from earlier work
Candida albicans = tested on: Candida albicans; set-up: method as in PMID 21973054; conditions: turbidimetric method; cited from earlier work
[3] = tested on: RAW 264.7 murine macrophages; conditions: cited from earlier work
HL-60 and HCT-116 = tested on: HL-60 and HCT-116; set-up: method as in PMID 22298232; conditions: cited from earlier work
HUVEC and HMEC-1 = tested on: HUVEC and HMEC-1; set-up: method as in PMID 21518338; conditions: cited from earlier work
iNOS = tested on: iNOS; set-up: method as in PMID 12808242; conditions: cited from earlier work
[4] = tested on: Lewis lung carcinoma cells; set-up: method as in PMID 16827808; conditions: daily intraperitoneal injection, 1.5 or 3 mg/kg/day, cited from earlier work
BAEC = tested on: BAEC; set-up: method as in PMID 16827808; conditions: cited from earlier work
corneal angiogenesis = tested on: corneal angiogenesis; set-up: method as in PMID 16827808; conditions: cited from earlier work

SMILES: CC1(C)CC[C@]2(C(=O)O)CC[C@]3(C)C(=CC[C@@H]4[C@@]5(C)C[C@@H](O)[C@H](O)C(C)(C)[C@@H]5CC[C@]43C)[C@@H]2C1 [Compound 9, Maslinic acid]
- caspase-dependent apoptosis (human colon-cancer cells): induce caspase-dependent apoptosis
- effect on anti-tumor activities of TNF-α (pancreatic tumor): potentiate anti-tumor activities of TNF-α
- pancreatic tumor growth and invasion (pancreatic tumor): inhibit pancreatic tumor growth and invasion
- PKC inhibition (Protein kinase C (PKC)): acted as a PKC inhibitor
- glucose-lowering and hypoinsulinemic effects [1]: significant glucose-lowering and hypoinsulinemic effects
- inhibition on HIV-1 protease [2]: possess inhibition

SMILES: CC(=O)O[C@@H]1C[C@@H](C(C)C)[C@]2(CO)CC[C@@]3(C)[C@H]4C(=CC[C@]3(C)[C@@H]12)[C@@]1(C)CC[C@H](O)C(C)(C)[C@@H]1C[C@@H]4O [Compound 22, Rubiarbonol G]
- melting point: 170 to 173 °C
- inhibition on A549, Hela and SMMC-7721 (A549, Hela and SMMC-7721): had inhibition
- antibacterial activity against Staphylococcus aureus (Staphylococcus aureus): exhibited inhibition
- antifungal activity against Candida albicans (Candida albicans): exhibited inhibition

SMILES: COc1ccc(C[C@H]2C(=O)N[C@@H](C)C(=O)N(C)[C@H]3Cc4ccc(cc4)Oc4cc(ccc4O)C[C@@H](C(=O)N[C@H](C)C(=O)N[C@@H](C)C(=O)N2C)N(C)C3=O)cc1 [Compound 71, RA-V]
- activity against NO production in LPS [3]: exhibited activity
- cytotoxic activities against HL-60 and HCT-116 (HL-60 and HCT-116): potent cytotoxicities
- antiangiogenic activity in HUVEC and HMEC-1 (HUVEC and HMEC-1): possessed the activity
- effects on iNOS induction (iNOS): potent effects

SMILES: COc1ccc(C[C@H]2C(=O)N[C@@H](C)C(=O)N(C)[C@H]3Cc4ccc(cc4)Oc4cc(ccc4OC)C[C@@H](C(=O)N[C@H](C)C(=O)N[C@@H](C)C(=O)N2C)N(C)C3=O)cc1 [Compound 74, RA-VII]
- growth of Lewis lung carcinoma cells inoculated into mice [4]: significantly and dose dependently inhibited
- toxic effects on animals ([4]; mice): no toxic effects
- cytotoxic activities against HL-60 and HCT-116 (HL-60 and HCT-116): potent cytotoxicities
- antiangiogenic activity on proliferation, migration, stress fiber formation of BAEC (BAEC): antiangiogenic activity
- mouse corneal angiogenesis (corneal angiogenesis): effects on mouse corneal angiogenesis
